# According to patent US6452032B1, “Organosilyl compounds having nuclear hormone receptor modulating activity” (Allergan Sales, LLC, priority 1999, dated 2002):
# Where two headings read alike, the source gives them in different places.
# Key:
# RARβ [1] = target: T1, RARβ (Homo sapiens, UniProt P10826); assay: Transactivation assay, luciferase reporter, full length RARβ; type: cell-based
# T1 construct: expressed in transfected cells
# T1 sequence (P10826 1-455): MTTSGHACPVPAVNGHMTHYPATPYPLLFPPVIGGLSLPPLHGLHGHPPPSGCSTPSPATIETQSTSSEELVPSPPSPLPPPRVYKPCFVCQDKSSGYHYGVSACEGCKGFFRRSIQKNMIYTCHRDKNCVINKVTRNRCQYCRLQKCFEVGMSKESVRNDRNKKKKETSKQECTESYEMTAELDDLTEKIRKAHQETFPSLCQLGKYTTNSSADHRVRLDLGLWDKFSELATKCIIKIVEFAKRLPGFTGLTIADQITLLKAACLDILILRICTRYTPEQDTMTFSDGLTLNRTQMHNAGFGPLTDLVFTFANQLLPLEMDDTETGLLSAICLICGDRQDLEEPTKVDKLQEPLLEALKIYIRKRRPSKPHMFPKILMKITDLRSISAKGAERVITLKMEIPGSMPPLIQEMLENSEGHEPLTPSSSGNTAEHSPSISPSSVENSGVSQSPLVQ
# Protocol: (§1) Retinoic acid receptor transactivation activity and binding efficiencies were determined essentially as described in U.S. Pat. Nos.: 5,298,429 and 5,071,773, incorporated by reference herein. Transactivation assays employed expression plasmids encoding the full length receptors RARα, RARβ, RARγ, RXRα, RXRβ, and RXRγ. Reporter plasmids contained the herpes virus thymidine kinase promoter and the appropriate retinoid acid receptor response element (RAREs) or retinoid X receptor response element (RXREs) positioned upstream of an open coding region encoding firefly luciferase.
# (§2) These compounds are designated AGN 192192, AGN 192337, AGN 192294, AGN 192295, and AGN 192452, respectively. EC50 designates the concentration of the tested compound which was able to give a 50% maximal transcription of the reporter gene; KD50 indicates the concentration of the tested compound at which 50% of the compound molecules are bound to the receptor. NT indicates those points that were not tested in the particular experiment.
# RARγ [2] = target: T2, RARγ (Homo sapiens, UniProt P13631); assay: Transactivation assay, luciferase reporter, full length RARγ; type: cell-based
# T2 sequence (P13631 1-454): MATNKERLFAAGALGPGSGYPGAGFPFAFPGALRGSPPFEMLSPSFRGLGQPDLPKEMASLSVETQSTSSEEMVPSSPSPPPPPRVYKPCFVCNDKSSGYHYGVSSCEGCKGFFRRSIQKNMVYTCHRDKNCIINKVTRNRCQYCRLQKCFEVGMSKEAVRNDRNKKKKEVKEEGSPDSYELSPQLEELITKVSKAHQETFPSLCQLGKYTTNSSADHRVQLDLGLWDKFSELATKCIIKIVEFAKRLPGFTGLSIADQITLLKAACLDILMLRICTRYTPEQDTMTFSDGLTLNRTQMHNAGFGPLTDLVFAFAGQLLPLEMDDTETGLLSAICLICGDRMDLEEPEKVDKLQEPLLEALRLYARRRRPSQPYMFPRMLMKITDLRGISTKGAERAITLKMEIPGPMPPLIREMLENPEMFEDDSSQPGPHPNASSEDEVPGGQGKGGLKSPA
# Protocol: as §1, §2
# RARα [3] = target: T3, RARα (Homo sapiens, UniProt P10276); assay: Transactivation assay, luciferase reporter, full length RARα; type: cell-based; conditions: concentration giving 50% maximal transcription of the reporter gene; read-out: Trans (EC50) RARα
# T3 sequence (P10276 1-462): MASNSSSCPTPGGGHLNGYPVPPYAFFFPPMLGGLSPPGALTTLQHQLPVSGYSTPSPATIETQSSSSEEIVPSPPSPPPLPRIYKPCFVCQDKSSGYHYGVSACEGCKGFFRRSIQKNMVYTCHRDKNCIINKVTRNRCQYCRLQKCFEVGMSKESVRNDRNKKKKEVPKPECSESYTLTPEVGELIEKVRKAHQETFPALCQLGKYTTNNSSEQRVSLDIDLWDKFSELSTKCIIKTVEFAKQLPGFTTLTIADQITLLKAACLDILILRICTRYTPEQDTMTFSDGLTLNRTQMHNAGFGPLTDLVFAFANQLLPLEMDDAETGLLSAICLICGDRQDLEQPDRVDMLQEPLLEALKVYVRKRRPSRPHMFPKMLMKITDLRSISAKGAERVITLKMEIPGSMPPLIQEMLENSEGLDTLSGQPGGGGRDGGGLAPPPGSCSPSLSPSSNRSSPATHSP
# Protocol: as §1, §2
# RARα [4] = target: T3, RARα; assay: Competition binding assay, radiolabeled all-trans-retinoic acid, RARα
# Protocol: (§3) Binding assays were performed using a classic competition assay format in which cloned receptor RAR mand RXR molecules were first loaded with either radiolabeled all-trans-retinoic acid (RAR) or radiolabeled 9-cis retinoic acid (RXR), and then the amount of radioactivity liberated with increasing concentration of test compound was measured.
# as §2
# RARγ [5] = target: T2, RARγ; assay: Competition binding assay, radiolabeled all-trans-retinoic acid, RARγ
# Protocol: as §3, §2
# RARβ [6] = target: T1, RARβ; assay: Competition binding assay, radiolabeled all-trans-retinoic acid, RARβ
# Protocol: as §3, §2
# RXRγ [7] = target: T4, RXRγ (Homo sapiens, UniProt P48443); assay: Transactivation assay, luciferase reporter, full length RXRγ; type: cell-based; conditions: concentration giving 50% maximal transcription of the reporter gene; read-out: Trans (EC50) RXRγ
# T4 construct: encoding the full length receptors RARα, RARβ, RARγ, RXRα, RXRβ, and RXRγ; expressed in transfected cells
# T4 sequence (P48443 1-463): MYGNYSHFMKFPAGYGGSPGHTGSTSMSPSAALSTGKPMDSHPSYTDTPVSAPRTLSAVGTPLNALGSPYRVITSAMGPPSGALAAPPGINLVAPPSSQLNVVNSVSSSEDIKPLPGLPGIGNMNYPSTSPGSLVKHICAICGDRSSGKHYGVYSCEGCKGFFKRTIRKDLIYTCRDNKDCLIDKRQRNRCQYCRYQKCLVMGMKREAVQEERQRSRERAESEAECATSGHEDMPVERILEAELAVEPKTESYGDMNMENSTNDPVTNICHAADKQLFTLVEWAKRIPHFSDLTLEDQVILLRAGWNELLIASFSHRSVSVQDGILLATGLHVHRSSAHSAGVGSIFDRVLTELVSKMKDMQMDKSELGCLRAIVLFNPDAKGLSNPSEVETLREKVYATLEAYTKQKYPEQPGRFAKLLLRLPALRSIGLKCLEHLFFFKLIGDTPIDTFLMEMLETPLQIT
# Protocol: as §1, §2
# RXRα [8] = target: T5, RXRα (Homo sapiens, UniProt P19793); assay: Transactivation assay, luciferase reporter, full length RXRα; type: cell-based; conditions: concentration giving 50% maximal transcription of the reporter gene; read-out: Trans (EC50) RXRα
# T5 construct: encoding the full length receptors RARα, RARβ, RARγ, RXRα, RXRβ, and RXRγ; expressed in transfected cells
# T5 sequence (P19793 1-462): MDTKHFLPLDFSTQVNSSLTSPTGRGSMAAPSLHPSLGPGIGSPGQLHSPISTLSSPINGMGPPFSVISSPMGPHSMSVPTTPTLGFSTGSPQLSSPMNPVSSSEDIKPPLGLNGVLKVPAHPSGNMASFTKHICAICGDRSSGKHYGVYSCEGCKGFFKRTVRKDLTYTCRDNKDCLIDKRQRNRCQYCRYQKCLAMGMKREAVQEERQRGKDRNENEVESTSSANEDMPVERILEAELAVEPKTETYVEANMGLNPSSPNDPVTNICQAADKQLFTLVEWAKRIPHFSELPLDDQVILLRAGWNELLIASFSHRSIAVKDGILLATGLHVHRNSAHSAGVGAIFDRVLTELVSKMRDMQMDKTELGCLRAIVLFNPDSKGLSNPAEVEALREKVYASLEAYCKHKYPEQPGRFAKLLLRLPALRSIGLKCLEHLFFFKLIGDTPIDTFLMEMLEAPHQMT
# Protocol: as §1, §2
# RXRγ [9] = target: T4, RXRγ; assay: Competition binding assay, radiolabeled 9-cis retinoic acid, RXRγ; conditions: competition with radiolabeled 9-cis retinoic acid; read-out: Bind (KD50) RXRγ
# Protocol: as §3, §2
# RXRβ [10] = target: T6, RXRβ (Homo sapiens, UniProt P28702); assay: Competition binding assay, radiolabeled 9-cis retinoic acid, RXRβ; conditions: competition with radiolabeled 9-cis retinoic acid; read-out: Bind (KD50) RXRβ
# T6 construct: encoding the full length receptors RARα, RARβ, RARγ, RXRα, RXRβ, and RXRγ; expressed in transfected cells
# T6 sequence (P28702 1-533): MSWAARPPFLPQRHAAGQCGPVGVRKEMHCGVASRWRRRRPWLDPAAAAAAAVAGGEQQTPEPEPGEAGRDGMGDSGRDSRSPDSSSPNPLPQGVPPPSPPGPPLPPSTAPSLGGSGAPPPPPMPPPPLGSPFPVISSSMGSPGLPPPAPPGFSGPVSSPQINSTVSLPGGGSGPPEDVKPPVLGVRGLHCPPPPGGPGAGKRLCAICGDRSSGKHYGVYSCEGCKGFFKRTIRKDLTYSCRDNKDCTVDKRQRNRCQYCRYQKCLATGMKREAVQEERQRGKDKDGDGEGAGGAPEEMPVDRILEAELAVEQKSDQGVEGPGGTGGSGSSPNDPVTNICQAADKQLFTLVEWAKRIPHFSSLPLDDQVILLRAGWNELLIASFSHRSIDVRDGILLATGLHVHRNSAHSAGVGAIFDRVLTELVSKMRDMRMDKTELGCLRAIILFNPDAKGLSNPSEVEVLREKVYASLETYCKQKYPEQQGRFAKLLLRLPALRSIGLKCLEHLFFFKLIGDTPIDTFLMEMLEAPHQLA
# Protocol: as §3, §2
# RXRβ [11] = target: T6, RXRβ; assay: Transactivation assay, luciferase reporter, full length RXRβ; type: cell-based; conditions: concentration giving 50% maximal transcription of the reporter gene; read-out: Trans (EC50) RXRβ
# Protocol: as §1, §2
# RXRα [12] = target: T5, RXRα; assay: Competition binding assay, radiolabeled 9-cis retinoic acid, RXRα; conditions: competition with radiolabeled 9-cis retinoic acid; read-out: Bind (KD50) RXRα
# Protocol: as §3, §2
# [13] = concentration giving 50% maximal transcription of the reporter gene, read-out: Trans (EC50) RARβ
# [14] = competition with radiolabeled all-trans-retinoic acid, read-out: Bind (KD50) RARα
# [15] = competition with radiolabeled all-trans-retinoic acid, read-out: Bind (KD50) RARγ
# [16] = competition with radiolabeled all-trans-retinoic acid, read-out: Bind (KD50) RARβ
Structure (SMILES),EC50 (RARβ [1]; [13]) [nM],EC50 (RARα [3]) [nM],Kd (RARα [4]; [14]) [nM],Kd (RARγ [5]; [15]) [nM],Kd (RARβ [6]; [16]) [nM],EC50 (RXRγ [7]) [nM],EC50 (RXRα [8]) [nM],also measured
CC1(C)CCC(C)(C)c2cc(/C(=C/c3ccc(C(=O)O)s3)[Si](C)(C)C)ccc21 [Compound 192295],290,350,1300,1550,499,,,"EC50 (RARγ [2]; concentration giving 50% maximal transcription of the reporter gene, read-out: Trans (EC50) RARγ): 330 nM"
Cc1cc2c(cc1/C(=C/c1ccc(C(=O)O)s1)[Si](C)(C)C)C(C)(C)CCC2(C)C [Compound 192294],,,,8940,8000,,,
CC1(C)CCC(C)(C)c2cc(/C(=C/c3ccc(C(=O)C(=O)O)cc3)[Si](C)(C)C)ccc21 [Compound 192337],,,,,,,,EC50 (RARβ [1]): 260 nM; EC50 (RARγ [2]): 1500 nM; Kd (RARα [4]): 2280 nM; Kd (RARγ [5]): 5840 nM; Kd (RARβ [6]): 2430 nM
CC1(C)CC(C)(C)c2cc(/C(=C/c3ccc(C(=O)C(=O)O)cc3)[Si](C)(C)C)ccc2O1 [Compound 192452],,,,4520,3300,2900,3100,
Cc1cc2c(cc1/C(=C/c1ccc(C(=O)C(=O)O)cc1)[Si](C)(C)C)C(C)(C)CCC2(C)C [Compound 192192],88,550,2640,2020,699,960,990,Kd (RXRγ [9]): > 1000 nM; Kd (RXRβ [10]): > 1000 nM; EC50 (RXRβ [11]): 780 nM; Kd (RXRα [12]): > 1000 nM
